PubChem BioAssay AID624029 (Broad Institute, 2012)
The source made the active and inactive calls.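 The calls were made as follows: active = compounds lowering HDL uptake fluorescence with a fitted half-maximal potency at most twice the top tested dose; inconclusive = flat partial inhibition of 30 to 70% or an unreliable fit; inactive = the rest.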

Target: Scavenger receptor class B member 1 (Mus musculus) (UniProt Q61009)
Experiment: blockers of DiI-HDL lipid transfer via SR-BI – cell-based, ldlA[mSR-BI] CHO, DiI fluorescence, dry powder, set 10, dose response (AID 624029)
Conditions: CHO ldlA[mSR-BI] DiI-HDL uptake fluorescence, 3 h

Chain of Scavenger receptor class B member 1 (Mus musculus) (Q61009 whole entry, looked up): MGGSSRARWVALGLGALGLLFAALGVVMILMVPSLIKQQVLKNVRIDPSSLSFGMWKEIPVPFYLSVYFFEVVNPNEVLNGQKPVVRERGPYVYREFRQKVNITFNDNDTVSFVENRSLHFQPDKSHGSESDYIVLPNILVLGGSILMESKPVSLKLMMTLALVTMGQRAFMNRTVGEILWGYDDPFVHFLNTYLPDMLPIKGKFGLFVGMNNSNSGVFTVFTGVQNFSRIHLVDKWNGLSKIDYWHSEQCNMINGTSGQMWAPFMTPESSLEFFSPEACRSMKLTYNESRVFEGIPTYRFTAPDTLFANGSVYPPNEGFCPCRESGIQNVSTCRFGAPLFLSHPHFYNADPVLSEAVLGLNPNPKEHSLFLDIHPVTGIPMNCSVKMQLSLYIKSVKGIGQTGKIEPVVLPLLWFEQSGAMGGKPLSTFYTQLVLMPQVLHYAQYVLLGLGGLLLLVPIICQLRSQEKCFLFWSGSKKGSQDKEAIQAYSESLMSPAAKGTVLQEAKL

Row | Structure (SMILES) | AC50 [nM]
1 | CC(C)NC(=O)Nc1ccc2c(c1)C(=O)N([C@H](C)CO)C[C@@H](C)[C@H](CN(C)S(=O)(=O)c1ccc(Cl)cc1)O2 | 293

Same assay, conditions: CHO ldlA[mSR-BI] DiI-HDL uptake fluorescence, 3 h; at 35 µM (top of the series)

Row | Structure (SMILES) | activity change, negative = inhibition
2 | C=CCOC(=O)N(C)C[C@@H]1Oc2ccc(NC(=O)NC(C)C)cc2C(=O)N([C@H](C)CO[Si](C)(C)C(C)(C)C)C[C@H]1C | inactive
3 | C=CCOC(=O)N(C)C[C@@H]1Oc2ccc(NC(=O)OCC3c4ccccc4-c4ccccc43)cc2C(=O)N([C@H](C)CO)C[C@H]1C | inactive
4 | CNC[C@@H]1Oc2ccc(NC(=O)NC(C)C)cc2C(=O)N([C@H](C)CO[Si](C)(C)C(C)(C)C)C[C@H]1C | inactive
5 | CC(C)NC(=O)Nc1cccc2c1O[C@@H](CN(C)S(=O)(=O)c1ccc(Cl)cc1)[C@H](C)CN([C@H](C)CO)C2=O | inactive
6 | CC(C)NC(=O)Nc1ccc2c(c1)CC(=O)N([C@H](C)CO)C[C@@H](C)[C@H](CN(C)S(=O)(=O)c1ccc(Cl)cc1)O2 | inactive
7 | CC(C)NC(=O)Nc1ccc2c(c1)C(=O)N([C@H](C)CO[Si](C)(C)C(C)(C)C)C[C@@H](C)[C@H](CN(C)S(=O)(=O)c1ccc(Cl)cc1)O2 | inactive
8 | C[C@@H]1CN([C@H](C)CO)C(=O)c2cc(NC(=O)Nc3ccc(F)cc3)ccc2O[C@H]1CN(C)S(=O)(=O)c1ccc(Cl)cc1 | inactive
